Experiments:
recAkirin2 [1] = target: T1, recAkirin2 (Homo sapiens, UniProt Q53H80); assay: In vitro protein pull-down and Western blot of recAkirin2 with biotinylated histone H3.1 peptides; format: binding; parameters: DDK (FLAG) (C); purchased GenScript (E. coli) or OriGene (HEK293T); 'insect cells and E. coli'; settings: streptavidin beads, 1 µg protein, 2 h at RT, Akirin2-specific antibody ab130473
[2] = system: recombinant human Akirin2 (recAkirin2); assay: EpiTriton Histone Peptide Array, recAkirin2 binding (fluorescence); settings: recAkirin2 vs HSP70, Student's t test and One-Way ANOVA (P<0.05), n=2 technical replicates
[3] = system: ELANE and LHX2 mRNA in human HL60 cells; assay: Akirin2 'distraction' by histone peptide transfection, ELANE and LHX2 mRNA by qRT-PCR; format: cell-based; settings: 1.5 μg peptide per well, HL60 1 × 10^5 cells/well, harvested after 72 h; normalized to β-actin; unpaired t test P<0.05, n=3 biological replicates
AKR2 = system: AKR2; parameters: key: A: Very high confidence in the interaction; B: High confidence in the interaction; D: Moderate confidence in the interaction; settings: AKR2-interacting proteins (IPs), physical interactome; ref https://doi.org/10.3390/vaccines8010077; cited from earlier work
Description: Supplement BSR-2021-1120_supp1.zip/BSR-2021-1120_suppST4.xlsx, sheet "BPs related to AKR2-IPs" | column: Predicted Biological Score (PBS)

recAkirin2 [4] = target: T1, recAkirin2; assay: Akirin2–IP interactions in HL60 lysate, c-Myc pull-down and dot blot; format: binding; settings: recAkirin2 on c-Myc beads with HL60 lysate, dot blot; compared with SNRNP70, Student's t test P<0.05, n=2 biological replicates
Method: Some of the previously identified Akirin2 IPs were selected for analysis of Akirin2–IP interactions in human HL60 cells. The HL60 cells were pelleted, washed with cold PBS and proteins were extracted by adding 1 ml of cold TBS supplemented with protease inhibitor cocktail (Complete Mini EDTA-free, Roche, Switzerland). Cells were disrupted passing through a 20 G needle and sonicated (3 min/cycle, 3 cycles, 25°C) until lysate was clear. Lysate was centrifuged at 12000×g for 30 min at 4°C, after which the supernatant was collected, and protein concentration was determined using the BCA Protein Assay using BSA as the standard. The COOH-(Myc-([…])-DDK)-tagged recAkirin2 produced in human cells was used for interactions with the identified Akirin2–IPs, mediator of RNA polymerase II transcription subunit 16 (THRAP5; Q9Y2X0), phosphatidylinositol transfer protein-α isoform (PITPNA; Q00169), protein Wnt-2 (WNT2; P09544), and splicing factor 3a subunit 1 (SF3A1; Q15459). The U1 small nuclear ribonucleoprotein 70 kDa (SNRNP70; P08621) was used as protein negative control. […] Area and percent analysis of each chemiluminescence dot signal were obtained and analyzed using Fiji program (ImageJ 1.52n; https://downloads.tomsguide.com/ImageJ,0301-31184.html). […]

tick SUB = settings: cited from earlier work
Description: Epigenetic modifications of histone H3.1 at Lys amino acids has been involved in the regulation of transcription in different BPs and pathogen infection [[48–51]].

human HL60 cells = assay: SWATH-MS proteomics, differential protein representation, akirin2 KO vs WT HL60 cells; format: cell-based
Method: Total proteins were extracted from WT and akirin2 KO HL60 cells using the AllPrep DNA/RNA/Protein Mini Kit (Qiagen) and protein concentration was determined using the BCA Protein Assay with BSA (Sigma–Aldrich) as standard. Protein extracts (150 µg per sample, n=3 biological replicates) from each WT and KO cells were trypsin digested using the FASP Protein Digestion Kit (Expedeon Ltd., Abcam, Cambridge, U.K.) and sequencing grade trypsin (Promega, Madison, WI, U.S.A.) following manufacturer’s recommendations. The resulting peptides were finally desalted on to OMIX Pipette tips C18 (Agilent Technologies, Santa Clara, CA, U.S.A.), dried down and stored at −20 °C until mass spectrometry analysis. […] Three micrograms of each protein digest from the three biological replicates of WT and akirin2 KO HL60 cells were used for the generation of the reference spectral ion library as part of the SWATH-MS analysis.
Peptides were eluted in a 120-min gradient from 5 to 30% solvent B in solvent A followed by 15-min gradient from 30 to 60% solvent B in solvent A (solvent A: 0.1% formic acid in water, solvent B: 0.1% formic acid in acetonitrile) and directly injected into the mass spectrometer for analysis. For IDA experiments, the mass spectrometer was set to scanning full spectra (350–1400 m/z) using 250 ms accumulation time per spectrum, followed by up to 50 MS/MS scans (100–1500 m/z). Candidate ions with a charge state between +2 and +5 counts per second above a minimum threshold of 100 were isolated for fragmentation. One MS/MS spectrum was collected for 100 ms, before adding those precursor ions to the exclusion list for 15 s (mass spectrometer operated by Analyst TF 1.6, AB Sciex). Dynamic background subtraction was turned off. MS/MS analyses were recorded in high-sensitivity mode with rolling collision energy on and a collision energy spread of 5. For SWATH quantitative analysis, six independent samples (three replicates from WT and akirin2 KO HL60 cells, 5 µg each) were subjected to the cyclic DIA of mass spectra using the SWATH variable windows calculator (V 1.0, AB Sciex) and the SWATH acquisition method editor (AB Sciex), similar to established methods. […] For these experiments, a 50-ms survey scan (350–1400 m/z) was acquired at the beginning of each cycle, and SWATH–MS/MS spectra were collected from 100–1500 m/z for 70 ms at high-sensitivity mode, resulting in a cycle time of 3.6 s. Collision energy for each window was determined according to the calculation for a charge +2 ion-centered upon the window with a collision energy spread of 15. To create a spectral library of all the detectable peptides in the samples, the IDA MS raw files were combined and subjected to database search in unison using ProteinPilot software v. 5.0.1 (AB Sciex) with the Paragon algorithm. […] The detected protein threshold was set at 0.05. An independent false discovery rate (FDR) analysis, using the target–decoy approach provided by Protein Pilot (AB Sciex; https://sciex.com/products/software/proteinpilot-software), was used to assess the quality of identifications. Positive identifications were considered when identified proteins reached 1% of global FDR. […] Global normalization was performed according to the Total Area Sums (TAS) of all detected proteins in the samples. […] Heatmaps were prepared using the Heatmapper (http://www.heatmapper.ca/expression/) with average linkage and Euclidean distance measurement method.

[5] = SWATH-MS, akirin2 KO vs WT HL60 cells, sheet "Under-represented in KO"
[6] = akirin2 KO vs WT HL60 cells, sheet "Under-represented in KO"
[7] = SWATH-MS, akirin2 KO vs WT HL60 cells, over-represented in KO
[8] = KO vs WT, akirin2 KO vs WT HL60 cells, sheet "Under-represented in KO"
[9] = KO vs WT HL60 cells, sheet "Under-represented in KO"
[10] = Over-represented in KO, KO vs WT HL60 cells
[11] = SWATH-MS, akirin2 KO vs WT HL60 cells, under-represented in KO

T1 sequence (Q53H80 whole entry): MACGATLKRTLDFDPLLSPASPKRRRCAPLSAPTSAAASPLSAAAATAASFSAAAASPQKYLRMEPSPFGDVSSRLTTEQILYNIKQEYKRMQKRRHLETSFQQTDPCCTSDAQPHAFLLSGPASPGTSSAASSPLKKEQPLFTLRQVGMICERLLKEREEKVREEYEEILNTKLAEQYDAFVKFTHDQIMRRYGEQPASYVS

**Q.** For “ARTKQTARKSTGGK(Me2)APRKQL-Peg-Biot [Peptide H3met, histone H3.1 amino acids 1–20 dimethylated at Lys^14, biotinylated]”, which “recAkirin2–histone H3.1 peptide interaction by pull-down and Western blot” value (recAkirin2 [1]) is on record?
**A.** The value was “corroborated by in vitro protein pull-down and Western blot analysis”.

**Q.** And the “Akirin2–histone interaction by histone peptide array” value [2]?
**A.** Its value is “Akirin2–histone H3.1 interacting peptides”.

**Q.** With “H2A: unrelated histone H2A (amino acids 1–17) peptide (Epicypher, Inc.) (SGRGKQGGKARAKAKTR; UniProt P0C0S8 2-18, looked up, fragment) [Peptide H2A]” as the substance, how does the “Effect of transfection on gene expression (ELANE and LHX2 mRNA)” value [3] read?
**A.** The value was “not the unrelated H2A or HEPES buffer affected gene expression”.

**Q.** With RGPD3 as the substance, how does the “Predicted Biological Score (PBS)” value (AKR2) read?
**A.** Its value is “A”.

**Q.** For RGPD5, which “Predicted Biological Score (PBS)” value (AKR2) is on record?
**A.** The value was “A”.

**Q.** With RGPD8 as the substance, how does the “Predicted Biological Score (PBS)” value (AKR2) read?
**A.** Its value is “A”.

**Q.** For “SNRNP70: U1 small nuclear ribonucleoprotein 70 kDa (P08621), protein negative control”, which “Akirin2–IP interaction” value (recAkirin2 [4]) is on record?
**A.** Its value is “low interaction with Akirin2”.

**Q.** For WDYHV1, which “Predicted Biological Score (PBS)” value (AKR2) is on record?
**A.** Its value is “A”.

**Q.** Which “physical interaction with tick SUB” value (tick SUB) does the source give for “histone H4 but: histone H4, amino acids 1–23 butyrylated at Lys 5, 8 and 12” here?
**A.** The value was “physical interaction”.

**Q.** For sp¦Q86UX7¦URP2_HUMAN, which “Fold Change” value (human HL60 cells; [5]) is on record?
**A.** Its value is 0.7476.

**Q.** What about the “Log (Fold Change)” value (human HL60 cells; [5]) of the same substance?
**A.** The value was -0.1263.

**Q.** What does the source list for sp¦Q96A72¦MGN2_HUMAN?
**A.** Fold Change (human HL60 cells; [6]): 0.6271; Log (Fold Change) (human HL60 cells; [6]): -0.2026

**Q.** What does the source list for sp¦Q01469¦FABP5_HUMAN?
**A.** Fold Change (human HL60 cells; [7]): 1.478; Log (Fold Change) (human HL60 cells; [7]): 0.1698

**Q.** What does the source list for sp¦Q01650¦LAT1_HUMAN?
**A.** Fold Change (human HL60 cells; [8]): 0.603; Log (Fold Change) (human HL60 cells; [8]): -0.2197

**Q.** Which “Fold Change” value (human HL60 cells; [5]) does the source give for sp¦Q02880¦TOP2B_HUMAN here?
**A.** Its value is 0.7738.

**Q.** And the “Log (Fold Change)” value (human HL60 cells; [5])?
**A.** The value was -0.1113.

**Q.** For sp¦Q07812¦BAX_HUMAN, which “Fold Change” value (human HL60 cells; [9]) is on record?
**A.** The value was 0.5501.

**Q.** What about the “Log (Fold Change)” value (human HL60 cells; [9]) of the same substance?
**A.** The value was -0.2596.

**Q.** What does the source list for sp¦Q08945¦SSRP1_HUMAN?
**A.** Fold Change (human HL60 cells; [6]): 0.3484; Log (Fold Change) (human HL60 cells; [6]): -0.4579

**Q.** For sp¦Q09666¦AHNK_HUMAN, which “Fold Change” value (human HL60 cells; [7]) is on record?
**A.** The value was 1.42.

**Q.** What about the “Log (Fold Change)” value (human HL60 cells; [7]) of the same substance?
**A.** Its value is 0.1523.

**Q.** Which “Fold Change” value (human HL60 cells; [10]) does the source give for sp¦Q13283¦G3BP1_HUMAN here?
**A.** Its value is 1.326.

**Q.** What about the “Log (Fold Change)” value (human HL60 cells; [10]) of the same substance?
**A.** Its value is 0.1226.

**Q.** Which results are given for sp¦Q14165¦MLEC_HUMAN?
**A.** Fold Change (human HL60 cells; [11]): 0.7439; Log (Fold Change) (human HL60 cells; [11]): -0.1285

**Q.** Which results are given for sp¦Q14204¦DYHC1_HUMAN?
**A.** Fold Change (human HL60 cells; [6]): 0.6536; Log (Fold Change) (human HL60 cells; [6]): -0.1847

**Q.** Which “Fold Change” value (human HL60 cells; [9]) does the source give for sp¦Q14289¦FAK2_HUMAN here?
**A.** The value was 0.4591.

**Q.** What about the “Log (Fold Change)” value (human HL60 cells; [9]) of the same substance?
**A.** Its value is -0.3381.

**Q.** Which “Fold Change” value (human HL60 cells; [8]) does the source give for sp¦Q14692¦BMS1_HUMAN here?
**A.** The value was 0.6053.

**Q.** What about the “Log (Fold Change)” value (human HL60 cells; [8]) of the same substance?
**A.** The value was -0.218.

**Q.** With sp¦Q15056¦IF4H_HUMAN as the substance, how does the “Fold Change” value (human HL60 cells; [10]) read?
**A.** The value was 1.397.

**Q.** What about the “Log (Fold Change)” value (human HL60 cells; [10]) of the same substance?
**A.** Its value is 0.1451.

**Q.** Which “Fold Change” value (human HL60 cells; [9]) does the source give for sp¦Q92608¦DOCK2_HUMAN here?
**A.** Its value is 0.4625.

**Q.** What about the “Log (Fold Change)” value (human HL60 cells; [9]) of the same substance?
**A.** Its value is -0.3349.

**Q.** Which “Fold Change” value (human HL60 cells; [9]) does the source give for sp¦Q92616¦GCN1_HUMAN here?
**A.** The value was 0.4921.

**Q.** And the “Log (Fold Change)” value (human HL60 cells; [9])?
**A.** The value was -0.3079.

Source: paper PMC8298264, “Function of cofactor Akirin2 in the regulation of gene expression in model human neutrophil-like HL60 cells” (Bioscience Reports, 2021)
